In test [1] the test system is allogeneic kidney transplantation. Particulars: oral administration; cited from earlier work.
The subject of test [2] is DNFB-elicited allergic contact dermatitis (contact hypersensitivity reaction). Particulars: for Efficacy, global mean of differences in scores of untreated and treated test sites: erythema and induration scored 24 hours after DNFB challenge, 80 mg formulation topically at 30 minutes and 6 hours after challenge, 1% Elidel cream, 0.1% Zorac gel; for Efficacy %, single drug treatment with pimecrolimus set to 100%: relative to pimecrolimus/pimecrolimus, topical at 30 minutes and 6 hours after challenge, scored at 24 hours.
Procedure: 12 days before elicitation of ACD, 17 male domestic pigs receive 500 μl of 10% 2,4-dinitrofluorobenzene (DNFB) dissolved in dimethylsulfoxide/acetone/olive oil (1:5:3 v/v/v) epicutaneously in divided volumes onto the base of both ears and onto both groins (100 μl/site) for sensitization. The challenge reaction is elicited with 15 μl of DNFB 1.0% on test sites (7 cm^2 in size) arranged on both sides of the shaved dorsolateral back.
The test sites on the right dorsolateral side are treated with 80 mg formulation twice whereas the left controlateral test sites remain untreated for comparison. The test sites are treated 30 minutes after challenge, followed by the second application at 6 hours of the same drug or, in case of combination, the other drug.

For the compound `C=CC[C@@H]1/C=C(\C)C[C@H](C)C[C@H](OC)[C@H]2O[C@@](O)(C(=O)C(=O)N3CCCC[C@H]3C(=O)O[C@H](/C(C)=C/[C@@H]3CC[C@@H](O)[C@H](OC)C3)[C@H](C)[C@@H](O)CC1=O)[C@H](C)C[C@@H]2OC` [tacrolimus], the “minimum effective dose (MED)” value in test [1] is on record as 14 mg/kg.

With `CCOC(=O)c1ccc(C#Cc2ccc3c(c2)C(C)(C)CCS3)nc1` [tazarotene], in test [2], the “Efficacy, global mean of differences in scores of untreated and treated test sites” value is 2.96; the “Efficacy %, single drug treatment with pimecrolimus set to 100%” value was determined as 89%.

For “{[1E-(1R,3R,4S)]}1R,9S,12S, 13R,14S,17R,18E,21S,23S,24R,25S,27R}-12-[2-(4-chloro-3-methoxycyclohexyl)-1-methylvinyl]-17-ethyl-1,14-dihydroxy-23,25-dimethoxy-13,19,21,27-tetramethyl-11, 28,dioxa-4-azatricyclo [22.3.1.0(4,9)]octacos-18-ene-2,3,10,16-tetraone [pimecrolimus]”, the “superiority in comparison with tazarotene/tazarotene treatment” value in test [2] (difference of relative efficacy %) is on record as 11%. For the same compound, in test [2], the “Efficacy, global mean of differences in scores of untreated and treated test sites” value came out at 3.34; the “Efficacy %, single drug treatment with pimecrolimus set to 100%” value amounted to 100%. Besides, the “inhibition of the contact hypersensitivity reaction” value in test [2] (single drug treatment, two topical applications, scored 24 hours after challenge) was determined as 57%.

The values are drawn from US20060100187A1, “Synergistic combinations of macrolide t-cell modulator or immunosuppressant and a retinoid” (priority 2003, published 2006).
